Where “and” joins values, the source holds several entries; their conditions need not be identical. Equal entries are not always repeated. Toxic doses and inconclusive results are not listed. The calls were made as follows: active = survival T/C of 150% or more; inactive = T/C below 125% in these data.
Tested on: CD2F1 mice, L1210 leukemia ip, survival T/C
Assay: NCI In Vivo Anticancer Drug Screen. Data for tumor model L1210 Leukemia (intraperitoneal) in CD2F1 (CDF1) mice
Conditions: higher = longer survival
Summary of the method: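 Read-out first: treated-group measurement over vehicle-control measurement, expressed as a ratio. Animals bore a transplanted tumor line and were dosed with compound or vehicle.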

[1] = endpoint: mean survival time, dose: 100.0 mg/kg/injection, schedule: Q04DX003 (ip), vehicle: saline
[2] = endpoint: mean survival time, dose: 200.0 mg/kg/injection, schedule: Q04DX003 (ip), vehicle: saline
[3] = endpoint: mean survival time, dose: 400.0 mg/kg/injection, schedule: Q04DX003 (ip), vehicle: saline
[4] = endpoint: mean survival time, dose: 100.0 mg/kg/injection, schedule: Q01DX009 (ip), vehicle: saline with Tween-80
[5] = endpoint: mean survival time, dose: 100.0 mg/kg/injection, schedule: Q04DX003 (ip), vehicle: saline with Tween-80
[6] = endpoint: mean survival time, dose: 200.0 mg/kg/injection, schedule: Q01DX009 (ip), vehicle: saline with Tween-80
[7] = endpoint: mean survival time, dose: 200.0 mg/kg/injection, schedule: Q04DX003 (ip), vehicle: saline with Tween-80
[8] = endpoint: mean survival time, dose: 400.0 mg/kg/injection, schedule: Q01DX009 (ip), vehicle: saline with Tween-80
[9] = endpoint: mean survival time, dose: 400.0 mg/kg/injection, schedule: Q04DX003 (ip), vehicle: saline with Tween-80
[10] = endpoint: mean survival time, dose: 12.5 mg/kg/injection, schedule: Q01DX005 (ip), vehicle: water
[11] = endpoint: mean survival time, dose: 25.0 mg/kg/injection, schedule: Q01DX005 (ip), vehicle: water
[12] = endpoint: mean survival time, dose: 50.0 mg/kg/injection, schedule: Q01DX005 (ip), vehicle: water
[13] = endpoint: mean survival time, dose: 100.0 mg/kg/injection, schedule: Q01DX005 (ip), vehicle: water
[14] = endpoint: mean survival time, dose: 50.0 mg/kg/injection, schedule: Q01DX009 (ip), vehicle: Klucel (hydroxypropylcellulose) (HPC)
[15] = endpoint: mean survival time, dose: 100.0 mg/kg/injection, schedule: Q01DX009 (ip), vehicle: Klucel (hydroxypropylcellulose) (HPC)
[16] = endpoint: mean survival time, dose: 100.0 mg/kg/injection, schedule: Q01DX001 (ip), vehicle: saline with Tween-80
[17] = endpoint: mean survival time, dose: 200.0 mg/kg/injection, schedule: Q01DX001 (ip), vehicle: saline with Tween-80
[18] = endpoint: mean survival time, dose: 50.0 mg/kg/injection, schedule: Q01DX009 (ip), vehicle: saline with Tween-80

Measured: T/C

CC1(C)COC(Cc2ccccc2Br)=N1
inactive: [1] 101 % of control | [2] 93 % of control | [3] 93 % of control

CC(c1ccccc1)C(OC(=O)c1ccc([N+](=O)[O-])cc1)c1ccccc1 (stereo unspecified)
inactive: [4] 97 % of control | [5] 98 % of control | [6] 94 % of control | [7] 94 % of control | [8] 91 % of control | [9] 98 % of control

CC(C)NC(=O)c1ccc(N=NN(C)C)cc1
inactive: endpoint: mean survival time, dose: 12.5 mg/kg/injection, schedule: Q01DX009 (ip), vehicle: other 91 % of control and 105 % of control | endpoint: mean survival time, dose: 25.0 mg/kg/injection, schedule: Q01DX009 (ip), vehicle: DMSO 104 % of control | endpoint: mean survival time, dose: 25.0 mg/kg/injection, schedule: Q01DX009 (ip), vehicle: other 119 % of control and 100 % of control | endpoint: mean survival time, dose: 50.0 mg/kg/injection, schedule: Q01DX009 (ip), vehicle: DMSO 110 % of control | endpoint: mean survival time, dose: 100.0 mg/kg/injection, schedule: Q01DX009 (ip), vehicle: other 119 % of control

O=C(O)C1=C(C(=O)O)C2C3CC4C(C13)C42
inactive: [5] 101 % of control | [7] 100 % of control | [9] 88 % of control

CCC1(CC)OC2=C(CC(C#N)(C#N)C(C#N)(C#N)C2)O1
inactive: endpoint: mean survival time, dose: 5.0 mg/kg/injection, schedule: Q04DX003 (ip), vehicle: other 103 % of control | endpoint: mean survival time, dose: 10.0 mg/kg/injection, schedule: Q04DX003 (ip), vehicle: other 92 % of control | endpoint: mean survival time, dose: 20.0 mg/kg/injection, schedule: Q04DX003 (ip), vehicle: other 96 % of control

O=S(=O)(Nc1ccc(O)cc1)c1ccccc1
inactive: [4] 103 % of control | [5] 101 % of control | [6] 95 % of control | [7] 103 % of control | [8] 95 % of control | [9] 107 % of control

OCC1OC(c2nn(-c3ccccc3)[n+](-c3ccccc3)n2)C(O)C1O (stereo unspecified)
inactive: [10] 106 % of control | [11] 97 % of control | [12] 95 % of control | [13] 106 % of control | endpoint: mean survival time, dose: 200.0 mg/kg/injection, schedule: Q01DX005 (ip), vehicle: water 103 % of control

CC(=O)NC1=C(Sc2ccc(C)cc2)C(=O)c2ccccc2C1=O
inactive: endpoint: mean survival time, dose: 75.0 mg/kg/injection, schedule: Q01DX001 (ip), vehicle: saline 96 % of control | endpoint: mean survival time, dose: 150.0 mg/kg/injection, schedule: Q01DX001 (ip), vehicle: saline 98 % of control | endpoint: mean survival time, dose: 300.0 mg/kg/injection, schedule: Q01DX001 (ip), vehicle: saline 108 % of control

O=C1Nc2ccccc2/C1=C\c1ccccc1O
inactive: [14] 93 % of control | [15] 87 % of control | endpoint: mean survival time, dose: 200.0 mg/kg/injection, schedule: Q01DX009 (ip), vehicle: Klucel (hydroxypropylcellulose) (HPC) 96 % of control | endpoint: mean survival time, dose: 400.0 mg/kg/injection, schedule: Q01DX009 (ip), vehicle: Klucel (hydroxypropylcellulose) (HPC) 96 % of control

O=C(O)/C=C/C(=O)NCc1ccccc1
inactive: [4] 104 % of control | [6] 94 % of control | [8] 98 % of control

C=CCCCCCCCCC(=O)NC(C)COC (stereo unspecified)
inactive: [16] 107 % of control | [17] 98 % of control

COCC1OC(OC)C(OC)C(OC)C1OC (stereo unspecified)
inactive: [4] 94 % of control | [6] 102 % of control | [8] 105 % of control

CSc1nc(NC2OC(CO)C(O)C(O)C2O)c(I)c(=O)n1C (stereo unspecified)
inactive: endpoint: median survival time, dose: 12.5 mg/kg/injection, schedule: Q01DX005 (ip), vehicle: saline with Tween-80 100 % of control | endpoint: median survival time, dose: 25.0 mg/kg/injection, schedule: Q01DX005 (ip), vehicle: saline with Tween-80 100 % of control | endpoint: median survival time, dose: 50.0 mg/kg/injection, schedule: Q01DX005 (ip), vehicle: saline with Tween-80 103 % of control | endpoint: median survival time, dose: 100.0 mg/kg/injection, schedule: Q01DX005 (ip), vehicle: saline with Tween-80 107 % of control | endpoint: median survival time, dose: 200.0 mg/kg/injection, schedule: Q01DX005 (ip), vehicle: saline with Tween-80 119 % of control

CCC1(CC)CO1
inactive: [4] 104 % of control | [1] 96 % of control | [6] 93 % of control | [2] 94 % of control | [8] 97 % of control | [3] 98 % of control

CCCCCCCCN(C)C
inactive: endpoint: mean survival time, dose: 25.0 mg/kg/injection, schedule: Q01DX009 (ip), vehicle: saline with Tween-80 91 % of control | [18] 87 % of control

O=c1nc2c(ncn2C2OC(CO)C(O)C2O)c(NCCc2ccccc2)[nH]1 (stereo unspecified)
inactive: [10] 93 % of control | [11] 98 % of control | [12] 96 % of control | [13] 112 % of control

O=c1cc[nH]c(=S)[nH]1.[Pd]
inactive: endpoint: mean survival time, dose: 3.13 mg/kg/injection, schedule: Q04DX003 (ip), vehicle: distilled water + Tween-80 101 % of control | endpoint: mean survival time, dose: 6.25 mg/kg/injection, schedule: Q04DX003 (ip), vehicle: distilled water + Tween-80 101 % of control | endpoint: mean survival time, dose: 12.5 mg/kg/injection, schedule: Q04DX003 (ip), vehicle: distilled water + Tween-80 96 % of control | endpoint: mean survival time, dose: 25.0 mg/kg/injection, schedule: Q04DX003 (ip), vehicle: distilled water + Tween-80 98 % of control | endpoint: mean survival time, dose: 50.0 mg/kg/injection, schedule: Q04DX003 (ip), vehicle: distilled water + Tween-80 95 % of control | endpoint: mean survival time, dose: 100.0 mg/kg/injection, schedule: Q04DX003 (ip), vehicle: distilled water + Tween-80 90 % of control | endpoint: mean survival time, dose: 200.0 mg/kg/injection, schedule: Q04DX003 (ip), vehicle: distilled water + Tween-80 90 % of control

Br/C1=C/CCCCCC1
inactive: endpoint: mean survival time, dose: 37.5 mg/kg/injection, schedule: Q01DX009 (ip), vehicle: saline 94 % of control | endpoint: mean survival time, dose: 75.0 mg/kg/injection, schedule: Q01DX009 (ip), vehicle: saline 94 % of control | endpoint: mean survival time, dose: 150.0 mg/kg/injection, schedule: Q01DX009 (ip), vehicle: saline 104 % of control

O=C(O)CC1(c2ccccc2)OC(=O)c2ccccc21 (stereo unspecified)
inactive: [16] 91 % of control | [4] 96 % of control | [17] 94 % of control | [6] 100 % of control | endpoint: mean survival time, dose: 400.0 mg/kg/injection, schedule: Q01DX001 (ip), vehicle: saline with Tween-80 89 % of control

C/C=C1/C[C@@H](C)[C@@](C)(O)C(=O)OCC2=CCN3CC[C@@H](OC1=O)[C@@H]23
inactive: endpoint: mean survival time, dose: 50.0 mg/kg/injection, schedule: Q04DX003 (ip), vehicle: saline with Tween-80 103 % of control | [5] 103 % of control | [7] 98 % of control

OC1CCCC2CCC[N-]C12.OC1CCCC2CCC[N-]C12.[Mn+2] (stereo unspecified)
inactive: endpoint: mean survival time, dose: 25.0 mg/kg/injection, schedule: Q01DX009 (ip), vehicle: Klucel (hydroxypropylcellulose) (HPC) 104 % of control | [14] 115 % of control | [15] 104 % of control

CC#CS(=O)(=O)C(C)(C)C
inactive: [18] 100 % of control | [4] 100 % of control | [5] 93 % of control | [6] 97 % of control | [7] 90 % of control

C[n+]1ccc2ccccc2c1SC1CCC2CC3CC2C1C3 (stereo unspecified)
inactive: endpoint: mean survival time, dose: 10.0 mg/kg/injection, schedule: Q01DX009 (iv), vehicle: methylcellulose (MC) 97 % of control | endpoint: mean survival time, dose: 20.0 mg/kg/injection, schedule: Q01DX009 (iv), vehicle: methylcellulose (MC) 97 % of control

CCOC(=O)C(C)C(=O)C(C)N1C(=O)c2ccccc2C1=O (stereo unspecified)
inactive: endpoint: mean survival time, dose: 12.5 mg/kg/injection, schedule: Q01DX009 (ip), vehicle: water 95 % of control | endpoint: mean survival time, dose: 25.0 mg/kg/injection, schedule: Q01DX009 (ip), vehicle: water 95 % of control | endpoint: mean survival time, dose: 50.0 mg/kg/injection, schedule: Q01DX009 (ip), vehicle: water 95 % of control | endpoint: mean survival time, dose: 100.0 mg/kg/injection, schedule: Q01DX009 (ip), vehicle: water 100 % of control | endpoint: mean survival time, dose: 200.0 mg/kg/injection, schedule: Q01DX009 (ip), vehicle: water 96 % of control

From PubChem BioAssay AID256 (DTP/NCI, 2004)
